Measured values reported in publication PMC12152883, “Bile acids inhibit equilibrative adenosine transport to alter adenosine receptor signaling in cholestasis” (The Journal of Biological Chemistry, 2025).
Values joined by “and” are separate entries in the source; they are usually repeats but may differ in a detail not shown here. Identical values can stand only once. Like-named read-outs stand apart in the source and are kept apart here.

Legend:
HeLa cell line = experiment: 3H-nucleoside uptake inhibition by BAs in HeLa cell line; assay type: cell-based; conditions: BA 100 μM; for % Inhibition of Ado uptake, HeLa cell line, Sodium buffer / % Inhibition of Ado uptake, HeLa cell line, Sodium-free buffer: 3H-Ado 0.02 μM; for extent of inhibition of guanosine transport, HeLa cells: 3H-guanosine 0.02 μM, Na+-free
Procedure: The bars represent the mean ± SD (n = 3). A representative experiment from 3 to 5 independent experiments is presented. Statistical analysis was performed using one-way ANOVA with Dunnett’s multiple comparisons test; ∗p < 0.032, ∗∗p < 0.0021, ∗∗∗p < 0.0002.
HeLa (CCL-2) and HepG2 (HB_8065) were procured from ATCC. Both cell lines were cultured in Eagle's minimum essential medium and Dulbecco's modified Eagle's medium, respectively, supplemented with 10% fetal bovine serum and penicillin-streptomycin (1X). After cells were tested free for mycoplasma contamination, they were plated in 24-well plates, and transport assays were conducted when the cells were 80% confluent. The cells were briefly rinsed with PBS, and then the uptake of radiolabeled substrates was measured after a 5 min incubation in sodium containing (130 mM NaCl, 20 mM Tris–HCl, 3 mM K2HPO4, 1 mM MgCl2.6H2O, 2 mM CaCl2, 5 mM glucose, pH 7.4) or sodium-free (130 mM N-methyl-D-glucamin, 20 mM Tris–HCl, 3 mM K2HPO4, 1 mM MgCl2.6H2O, 2 mM CaCl2, 5 mM glucose, pH 7.4) transport buffers at 37 °C. Uptake was terminated by washing the cells three times with ice-cold arrest buffer containing 20 mM uridine. The cells were shaken for 30 min in 10% SDS for complete dissolution, after which the radioactivity was quantified with a Beckman liquid scintillation counter. The data are presented as the mean ± SD (n = 3).

ENT2 = biological target: T1, ENT2 (Homo sapiens, UniProt Q14542); experiment: Inhibition of 3H-nucleoside influx by BAs in ENT2-expressing Xenopus oocytes; assay type: cell-based; design: expressed in transfected cells; host or cells: Xenopus laevis oocytes injected with in vitro-transcribed capped mRNA from pOX-hENT2
T1 sequence (Q14542 1-456): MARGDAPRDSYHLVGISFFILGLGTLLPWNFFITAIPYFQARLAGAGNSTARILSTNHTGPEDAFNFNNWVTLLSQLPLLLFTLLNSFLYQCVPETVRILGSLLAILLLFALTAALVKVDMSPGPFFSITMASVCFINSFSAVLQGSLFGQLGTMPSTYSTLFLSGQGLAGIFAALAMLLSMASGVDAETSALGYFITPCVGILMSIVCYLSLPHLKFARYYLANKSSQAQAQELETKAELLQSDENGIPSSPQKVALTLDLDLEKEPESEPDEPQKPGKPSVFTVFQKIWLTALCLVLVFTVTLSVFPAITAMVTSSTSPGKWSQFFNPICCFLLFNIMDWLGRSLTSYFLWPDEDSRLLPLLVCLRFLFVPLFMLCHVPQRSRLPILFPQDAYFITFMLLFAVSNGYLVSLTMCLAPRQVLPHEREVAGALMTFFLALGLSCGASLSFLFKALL
Excerpt: We expressed individual ENTs (ENT1, ENT2, and ENT3) in X. laevis oocytes (as described above) and analyzed the Ado influx from each of the ENTs in the presence of different BAs to better understand whether the inhibition profiles differ across human ENTs. […] We also conducted an analysis of the concentration-dependent inhibition of Ado transport to estimate the IC50 values of the BAs (Fig. 4, D–F and Table 2).
Inhibition of Ado influx in H2O- and ENT-injected oocytes by treatment with different BAs at 100 μM. D–F, concentration-dependent inhibition of Ado influx in ENT-injected oocytes by different BAs. The bars represent the mean ± SD (n = 8–12 oocytes). A representative experiment from 3 to 5 independent experiments is presented. Statistical analysis was performed using one-way ANOVA with Dunnett’s multiple comparisons test; ∗p < 0.032, ∗∗p < 0.0021, ∗∗∗∗p < 0.0001.
The generated pOX expression constructs were linearized with either the Not1 or Sac1 restriction enzymes. The digested products were purified via phenol‒chloroform extraction. The mRNAs were synthesized using mMESSAGE mMACHINE (Ambion) transcription kits according to the manufacturer’s instructions. The mRNAs were purified via lithium precipitation. Oocytes were procured from Ecocyte. Prior to experiments, procured oocytes were defolliculated by treating with collagenase A-OR II solution followed by washing with Barth’s solution. Following microscopic verification, selected oocytes were incubated to recover overnight at 25 °C in a shaker incubator. Fifty nanoliters (400–800 ng/μl) of equal amounts of mRNAs were injected into defolliculated oocytes the next day. Expression of plasmids was analyzed after RNA isolation from oocyte extracts and conducting qPCR analysis with gene-specific primers as described earlier ([30]). The injected oocytes were incubated at 15 °C for 24 h before transport assays were performed. […] Uptake was terminated by washing the oocytes three times with arrest buffer containing 20 mM uridine. Individual oocytes were shaken overnight in 10% SDS for complete dissolution, and then the radioactivity was quantified with a Beckman liquid scintillation counter. The data are presented as the mean ± SD (n = 8–12 oocytes). A representative experiment from 3 to 5 independent experiments is presented.

[1] = 3H-Ado 20 μM, sodium-free buffer, read-out: ENT2 IC50 (Ado uptake)
[2] = BA 100 μM, 3H-Ado 20 μM, sodium-free buffer

Structure (SMILES)	% Inhibition of Ado uptake, HeLa cell line, Sodium buffer (HeLa cell line)	% Inhibition of Ado uptake, HeLa cell line, Sodium-free buffer (HeLa cell line)	extent of inhibition of guanosine transport, HeLa cells (HeLa cell line)	IC50 (ENT2; [1])	ENT2 % uptake inhibition (Ado) (ENT2; [2])	inhibition of guanosine transport mediated by ENT2 (ENT2; BA 100 μM, 3H-guanosine 20 μM)	inhibition of ENT2-mediated uridine uptake (ENT2; BA 100 μM, 3H-uridine 20 μM)	IC50 (ENT2)
C[C@H](CCC(=O)O)[C@H]1CC[C@H]2[C@@H]3[C@H](O)C[C@@H]4C[C@H](O)CC[C@]4(C)[C@H]3C[C@H](O)[C@]12C [CA, cholic acid]	52.17 ± 0.51%	48.8% and 48.78 ± 0.52%	16.1%	7.1 ± 1.6 µM	74.58%			
C[C@H](CCC(=O)O)[C@H]1CC[C@H]2[C@@H]3CC[C@@H]4C[C@H](O)CC[C@]4(C)[C@H]3C[C@H](O)[C@]12C [DCA, deoxycholic acid]	41.33 ± 0.10%	67.86 ± 1.67%	0%	0.9 ± 0.2 µM	65% and 64.77%	not statistically significant	inhibition of the ENT2-mediated uridine uptake	
C[C@H](CCC(=O)NCCS(=O)(=O)O)[C@H]1CC[C@H]2[C@@H]3[C@H](O)C[C@@H]4C[C@H](O)CC[C@]4(C)[C@H]3C[C@H](O)[C@]12C [TCA, taurocholic acid]	59.20 ± 0.31%	67.21 ± 0.08%	0%		70.68%			19.5 ± 4.5 µM
